Measurements reported in US20130190223A1, “NONIMMUNOSUPPRESSIVE CYCLOSPORINE ANALOGUE MOLECULES” (ISOTECHNIKA PHARMA INC., priority 2008, published 2013).
Where two headings read alike, the source gives them in different places.

Key:
calcineurin = settings: literature statement; cited from earlier work
CyP-A = CyP-A (Homo sapiens, UniProt P62937); settings: cited from earlier work
CyP-D = molecular target: T1, CyP-D (Rattus norvegicus, UniProt P29117); assay type: biochemical; settings: mitochondria isolated from rat liver, 190 μM calcium, swelling as decline in A540
T1 construct: Mitochondria were isolated from fresh rat liver; from tissue; host or cells: rat liver mitochondria
Text: A mitochondria swelling assay was used to measure the efficacy of NICAMs in blocking CyP-D and mitochondrial permeability transition. Under certain pathological conditions, mitochondria lose the ability to regulate calcium levels, and excessive calcium accumulation in the mitochondrial matrix results in the opening of large pores in the inner mitochondrial membrane. Nonselective conductance of ions and molecules up to 1.5 kilodaltons through the pore, a process called mitochondrial permeability transition, leads to swelling of mitochondria and other events which culminate in cell death. […] In general, mitochondria isolated from rat liver were exposed to calcium to induce MPTP opening in the absence or presence of test compounds, and calcium-induced swelling was measured as a reduction in light absorbance at 540 nm.
Mitochondria were isolated from fresh rat liver. Ice-cold or 4° C. conditions were used throughout all steps of the isolation. The liver was rinsed thoroughly and chopped in a small volume of isolation buffer (IB; 10 mM Hepes, 70 mM sucrose, 210 mM mannitol, 0.5 mM EDTA). Aliquots of the minced liver were homogenized in IB using a Teflon-glass Potter-Elvehjem tissue grinder and passed through a cell screen filter. The filtered homogenate was centrifuged at 600 g for 10 min, then the resulting supernatant centrifuged at 7000 g for 10 min. The supernatant was discarded, and the pellet resuspended in wash buffer (10 mM Hepes, 70 mM sucrose, 210 mM mannitol) and centrifuged a final time at 7000 g for 10 min. The supernatant was discarded, and the mitochondria-containing pellet suspended and stored on ice in 2 mL of respiration buffer (RB; 5 mM Hepes, 70 mM sucrose, 210 mM mannitol, 10 mM sodium succinate, 1 mM sodium phosphate dibasic).
Test compound solutions were prepared from 10 mg/ml stocks (dimethyl sulfoxide vehicle) first by diluting the test compound 1000× into respiration buffer #2 (RB2; 5 mM Hepes, 70 mM sucrose, 210 mM mannitol, 10 mM sodium succinate, 1 mM sodium phosphate dibasic, 1% fetal bovine serum, 2 μM rotenone), then by 3×-serial dilutions in RB2 to achieve test compound concentrations of 10000, 3333, 1111, 370, 123, 41, and 14 ng/mL. Polystyrene tubes and plates were used for all preparations.
Swelling assays were completed in a 96-well flat-bottom polystyrene plates. In each well a 10-μL aliquot of mitochondria suspension, equivalent to 100-200 μg total protein, was combined with 90 μL of test compound, incubated for 10 min, then the baseline absorbance measured on a plate reader (540 nm wavelength; A540). Swelling was induced by adding 5 μL of 4 mM calcium chloride to achieve a final calcium concentration of 190 μM. Mitochondria swelling was indicated by a decline in A540. […] Duplicate samples were assayed for each test compound concentration.
Means and ranges of duplicate samples are shown.

human lymphocytes = assay: Immunosuppressive potency: inhibition of proliferation of anti-CD3 stimulated human lymphocytes (CFSE, flow cytometry); assay type: cell-based; settings: relative potency: IC50 for inhibition of cell division normalized to CsA, 3 days incubation
Procedure: The immunosuppressive potency of test compounds was assessed by measuring their ability to inhibit the proliferation of human lymphocytes in cell culture. Lymphocytes were isolated from blood of normal human volunteers by Ficoll-gradient centrifugation and stained with 2 μg/ml carboxyfluoroscein diacetate succinimydyl ester (CFSE), a fluorescent cell division tracer molecule. Cells were stimulated through the CD3/T-cell receptor by seeding cells at 300,000/well into 96-well flat-bottom, high-binding plates coated with 1 μg/ml UCHT-1 anti-human CD3 antibody. Test compounds were prepared first as 10 mg/ml stock solutions in dimethylsulfoxide (DMSO). Test solutions were prepared by 500-fold dilution of the DMSO stock solutions, then 3-fold serial dilutions in cell culture medium (RPMI+5% FBS+penicillin-steptomycin) for a total of 7 concentrations per compound. Test solutions were added in equal volume to the culture wells containing cells to achieve final concentrations after dilution of 13.7 ng/ml-10,000 ng/ml. […] Following 3 days incubation cells were stained with CD95-APC (lymphocyte activation marker) and analyzed by flow cytometry with a Becton Dickinson FACSCalibur. Percentage cell division was assessed in forward/side-scatter-gated lymphocytes by measuring the proportion of cells that underwent one or more cell divisions as determined by serial halving of CFSE intensity. The nondivided parent population was determined from samples maintained in culture without anti-CD3 stimulation. IC50 values for inhibition of cell division were determined by nonlinear regression analysis. […]

Chain of CyP-A (P62937 whole entry): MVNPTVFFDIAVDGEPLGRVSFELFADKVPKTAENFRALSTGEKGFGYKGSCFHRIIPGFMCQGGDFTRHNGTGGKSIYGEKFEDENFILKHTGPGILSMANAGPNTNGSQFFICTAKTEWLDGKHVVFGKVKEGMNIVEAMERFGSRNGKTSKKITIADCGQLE
T1 sequence (P29117 30-206): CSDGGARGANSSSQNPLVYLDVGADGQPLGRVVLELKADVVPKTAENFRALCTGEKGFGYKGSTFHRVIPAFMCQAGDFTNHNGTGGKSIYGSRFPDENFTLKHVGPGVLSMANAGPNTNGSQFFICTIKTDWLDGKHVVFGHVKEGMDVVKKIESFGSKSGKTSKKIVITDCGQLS

Compound	immunosuppressive activity (calcineurin)	binding affinity for CyP-A (CyP-A)	binding affinity for CyP-A (CyP-A; literature statement)	CYP-D Inhibition (% Potency Vs CsA) (CyP-D) [%]	Immunosuppression (% Relative to CsA) (human lymphocytes) [%]
C/C=C/C[C@@H](C)[C@@H](O)[C@H]1C(=O)N[C@@H](CC)C(=O)N(C)[C@H](C)C(=O)N(CC)[C@@H](C(C)C)C(=O)N[C@@H](C(C)C)C(=O)N(C)[C@@H](CC(C)C)C(=O)N[C@@H](C)C(=O)N[C@H](C)C(=O)N(C)[C@@H](CC(C)C)C(=O)N(C)[C@@H](CC(C)C)C(=O)N(C)[C@@H](C(C)C)C(=O)N1C [DEBIO 025, MeAla^3EtVal^4-Cyclosporin]	no immunosuppressive activity	retains binding affinity for CyP-A			
C/C=C/C[C@@H](C)[C@@H](O)[C@H]1C(=O)N[C@@H](CC)C(=O)N(C)CC(=O)N(C)[C@@H]([C@@H](C)CC)C(=O)N[C@@H](C(C)C)C(=O)N(C)[C@@H](CC(C)C)C(=O)N[C@@H](C)C(=O)N[C@H](C)C(=O)N(C)[C@@H](CC(C)C)C(=O)N(C)[C@@H](CC(C)C)C(=O)N(C)[C@@H](C(C)C)C(=O)N1C [NIM 811, Melle^4-cyclosporine]	no immunosuppressive activity		retains binding affinity for CyP-A		
C/C=C/C[C@@H](C)[C@@H](O)[C@H]1C(=O)N[C@@H](CC)C(=O)N(C)[C@H](SCCN(C)C)C(=O)N(C)[C@@H](CC(C)(C)O)C(=O)N[C@@H](C(C)C)C(=O)N(C)[C@@H](CC(C)C)C(=O)N[C@@H](C)C(=O)N[C@H](C)C(=O)N(C)[C@@H](CC(C)C)C(=O)N(C)[C@@H](CC(C)C)C(=O)N(C)[C@@H](C(C)C)C(=O)N1C [SCY-635, DimethylaminoethylthioSar^3-hydroxyLeu^4-Cyclosporin]	no immunosuppressive activity	retains binding affinity for CyP-A			
CCC1NC(=O)C(C(O)C(C)CC=CCCCCCCCCCC(=O)N(C)C)N(C)C(=O)C(C(C)C)N(C)C(=O)C(CC(C)C)N(C)C(=O)C(CC(C)C)N(C)C(=O)C(C)NC(=O)C(C)NC(=O)C(CC(C)C)N(C)C(=O)C(C(C)C)NC(=O)C(CC(C)C)N(C)C(=O)CN(C)C1=O (centres unmarked) [Compound 420-104]				55.8	11
CCC1NC(=O)C(C(O)C(C)CC(O)CO)N(C)C(=O)C(C(C)C)N(C)C(=O)C(CC(C)C)N(C)C(=O)C(CC(C)C)N(C)C(=O)C(C)NC(=O)C(C)NC(=O)C(CC(C)C)N(C)C(=O)C(C(C)C)NC(=O)C(CC(C)C)N(C)C(=O)CN(C)C1=O (centres unmarked) [Compound 404-126]				24.6	<1
CCCCCCCC=CCC(C)C(O)C1C(=O)NC(CC)C(=O)N(C)CC(=O)N(C)C(CC(C)C)C(=O)NC(C(C)C)C(=O)N(C)C(CC(C)C)C(=O)NC(C)C(=O)NC(C)C(=O)N(C)C(CC(C)C)C(=O)N(C)C(CC(C)C)C(=O)N(C)C(C(C)C)C(=O)N1C (centres unmarked) [Compound 404-44]				1.2	1
CCOC(=O)CCCCCCC=CCC(C)C(O)C1C(=O)NC(CC)C(=O)N(C)CC(=O)N(C)C(CC(C)C)C(=O)NC(C(C)C)C(=O)N(C)C(CC(C)C)C(=O)NC(C)C(=O)NC(C)C(=O)N(C)C(CC(C)C)C(=O)N(C)C(CC(C)C)C(=O)N(C)C(C(C)C)C(=O)N1C (centres unmarked) [Compound 420-113]				33.2	<1
